Test: refractive index (Na D-line) (dimensionless); xn = mol fraction of the nth substance listed
Details: 101.32 kPa, Liquid, Standard Abbe refractometry

COCCOCCOCCOC [2,5,8,11-tetraoxadodecane] + CCO
refractive index
Details | 288.15 K | 298.15 K | 308.15 K | 318.15 K
x1 = 0.0045 | 1.3641 | 1.36 | 1.3559 | 1.3517
x1 = 0.0085 | 1.3648 | 1.3608 | 1.3567 | 1.3525
x1 = 0.0125 | 1.3656 | 1.3616 | 1.3575 | 1.3533
x1 = 0.0165 | 1.3664 | 1.3624 | 1.3583 | 1.3541
x1 = 0.0205 | 1.3672 | 1.3632 | 1.359 | 1.3548
x1 = 0.0305 | 1.3691 | 1.365 | 1.3609 | 1.3567
x1 = 0.05 | 1.3724 | 1.3684 | 1.3644 | 1.3602
x1 = 0.1 | 1.3799 | 1.376 | 1.372 | 1.3679
x1 = 0.15 | 1.3862 | 1.3823 | 1.3782 | 1.3741
x1 = 0.2 | 1.3915 | 1.3875 | 1.3834 | 1.3794
x1 = 0.25 | 1.396 | 1.3919 | 1.3879 | 1.3839
x1 = 0.3 | 1.3998 | 1.3958 | 1.3917 | 1.3877
x1 = 0.35 | 1.4032 | 1.3991 | 1.395 | 1.391
x1 = 0.4 | 1.4061 | 1.402 | 1.3979 | 1.3939
x1 = 0.4499 | 1.4087 | 1.4046 | 1.4005 | 1.3965
x1 = 0.5 | 1.411 | 1.4069 | 1.4028 | 1.3988
x1 = 0.55 | 1.4131 | 1.409 | 1.4049 | 1.4008
x1 = 0.6 | 1.4149 | 1.4108 | 1.4067 | 1.4026
x1 = 0.65 | 1.4166 | 1.4125 | 1.4084 | 1.4043
x1 = 0.7 | 1.4181 | 1.414 | 1.4099 | 1.4058
x1 = 0.75 | 1.4195 | 1.4154 | 1.4113 | 1.4072
x1 = 0.7999 | 1.4208 | 1.4167 | 1.4126 | 1.4084
x1 = 0.8499 | 1.422 | 1.4179 | 1.4137 | 1.4096
x1 = 0.8998 | 1.4231 | 1.4189 | 1.4148 | 1.4106
x1 = 0.9498 | 1.4241 | 1.4199 | 1.4158 | 1.4116
x1 = 1 | 1.425 | 1.4209 | 1.4167 | 1.4125

COCCOC [1,2-dimethoxyethane] + CCO
refractive index
Details | 288.15 K | 298.15 K | 308.15 K | 318.15 K
x1 = 0.0045 | 1.3633 | 1.3592 | 1.3552 | 1.351
x1 = 0.0086 | 1.3634 | 1.3593 | 1.3553 | 1.3511
x1 = 0.0125 | 1.3635 | 1.3594 | 1.3554 | 1.3512
x1 = 0.0165 | 1.3636 | 1.3596 | 1.3555 | 1.3513
x1 = 0.0205 | 1.3638 | 1.3597 | 1.3557 | 1.3515
x1 = 0.0305 | 1.3642 | 1.3601 | 1.356 | 1.3518
x1 = 0.05 | 1.3649 | 1.3608 | 1.3566 | 1.3524
x1 = 0.1 | 1.3666 | 1.3624 | 1.3582 | 1.3539
x1 = 0.15 | 1.3681 | 1.3639 | 1.3596 | 1.3552
x1 = 0.2 | 1.3695 | 1.3652 | 1.3609 | 1.3565
x1 = 0.25 | 1.3709 | 1.3664 | 1.3621 | 1.3576
x1 = 0.3 | 1.3721 | 1.3676 | 1.3631 | 1.3586
x1 = 0.35 | 1.3732 | 1.3686 | 1.3641 | 1.3596
x1 = 0.4 | 1.3742 | 1.3696 | 1.3651 | 1.3605
x1 = 0.45 | 1.3751 | 1.3705 | 1.3659 | 1.3613
x1 = 0.5 | 1.376 | 1.3714 | 1.3667 | 1.362
x1 = 0.55 | 1.3768 | 1.3722 | 1.3675 | 1.3628
x1 = 0.6 | 1.3776 | 1.3729 | 1.3682 | 1.3634
x1 = 0.6499 | 1.3783 | 1.3736 | 1.3688 | 1.364
x1 = 0.7 | 1.379 | 1.3742 | 1.3694 | 1.3646
x1 = 0.7499 | 1.3796 | 1.3748 | 1.37 | 1.3652
x1 = 0.7999 | 1.3802 | 1.3754 | 1.3705 | 1.3657
x1 = 0.85 | 1.3808 | 1.3759 | 1.371 | 1.3661
x1 = 0.9 | 1.3813 | 1.3764 | 1.3715 | 1.3666
x1 = 0.9499 | 1.3818 | 1.3768 | 1.3719 | 1.3669
x1 = 1 | 1.3824 | 1.3772 | 1.3722 | 1.3672

COCCOCCOC [2,5,8-trioxanonane] + CCO
refractive index
Details | 288.15 K | 298.15 K | 308.15 K | 318.15 K
x1 = 0.0045 | 1.3636 | 1.3596 | 1.3555 | 1.3514
x1 = 0.0085 | 1.3641 | 1.3601 | 1.356 | 1.3518
x1 = 0.0125 | 1.3645 | 1.3605 | 1.3565 | 1.3523
x1 = 0.0165 | 1.365 | 1.361 | 1.3569 | 1.3528
x1 = 0.0205 | 1.3655 | 1.3615 | 1.3574 | 1.3532
x1 = 0.0305 | 1.3666 | 1.3626 | 1.3585 | 1.3543
x1 = 0.05 | 1.3687 | 1.3647 | 1.3606 | 1.3564
x1 = 0.1 | 1.3737 | 1.3696 | 1.3654 | 1.3612
x1 = 0.15 | 1.378 | 1.3739 | 1.3697 | 1.3655
x1 = 0.2 | 1.3817 | 1.3776 | 1.3734 | 1.3692
x1 = 0.25 | 1.3851 | 1.381 | 1.3767 | 1.3725
x1 = 0.3 | 1.3881 | 1.3839 | 1.3797 | 1.3754
x1 = 0.35 | 1.3907 | 1.3866 | 1.3823 | 1.378
x1 = 0.4 | 1.3931 | 1.3889 | 1.3846 | 1.3803
x1 = 0.45 | 1.3953 | 1.3911 | 1.3867 | 1.3824
x1 = 0.4999 | 1.3973 | 1.3931 | 1.3887 | 1.3843
x1 = 0.55 | 1.399 | 1.3948 | 1.3904 | 1.3861
x1 = 0.5999 | 1.4007 | 1.3965 | 1.392 | 1.3877
x1 = 0.65 | 1.4022 | 1.398 | 1.3935 | 1.3892
x1 = 0.6999 | 1.4036 | 1.3993 | 1.3949 | 1.3905
x1 = 0.7499 | 1.4049 | 1.4006 | 1.3961 | 1.3917
x1 = 0.7999 | 1.406 | 1.4018 | 1.3973 | 1.3929
x1 = 0.8499 | 1.4072 | 1.4029 | 1.3984 | 1.394
x1 = 0.8998 | 1.4082 | 1.4039 | 1.3994 | 1.395
x1 = 0.9498 | 1.4092 | 1.4049 | 1.4003 | 1.3959
x1 = 1 | 1.4101 | 1.4058 | 1.4012 | 1.3968

COCCOCCOCCOCCOC [2,5,8,11,14-pentaoxapentadecane] + CCO
refractive index
Details | 288.15 K | 298.15 K | 308.15 K | 318.15 K
x1 = 0.0045 | 1.3644 | 1.3604 | 1.3564 | 1.3522
x1 = 0.0085 | 1.3656 | 1.3615 | 1.3575 | 1.3533
x1 = 0.0125 | 1.3667 | 1.3627 | 1.3586 | 1.3545
x1 = 0.0165 | 1.3678 | 1.3638 | 1.3598 | 1.3556
x1 = 0.0205 | 1.3689 | 1.3649 | 1.3608 | 1.3567
x1 = 0.0305 | 1.3714 | 1.3674 | 1.3634 | 1.3593
x1 = 0.05 | 1.376 | 1.372 | 1.368 | 1.3641
x1 = 0.1 | 1.3858 | 1.3819 | 1.3779 | 1.3741
x1 = 0.15 | 1.3936 | 1.3897 | 1.3857 | 1.3818
x1 = 0.2 | 1.3999 | 1.396 | 1.392 | 1.3881
x1 = 0.25 | 1.405 | 1.4011 | 1.3971 | 1.3931
x1 = 0.3 | 1.4093 | 1.4053 | 1.4013 | 1.3973
x1 = 0.35 | 1.4129 | 1.4089 | 1.4049 | 1.4009
x1 = 0.4 | 1.4159 | 1.412 | 1.408 | 1.404
x1 = 0.45 | 1.4186 | 1.4146 | 1.4106 | 1.4067
x1 = 0.5 | 1.4209 | 1.417 | 1.413 | 1.409
x1 = 0.55 | 1.423 | 1.419 | 1.415 | 1.411
x1 = 0.6 | 1.4248 | 1.4208 | 1.4168 | 1.4128
x1 = 0.6499 | 1.4264 | 1.4225 | 1.4184 | 1.4144
x1 = 0.7 | 1.4279 | 1.4239 | 1.4199 | 1.4159
x1 = 0.7498 | 1.4292 | 1.4252 | 1.4212 | 1.4172
x1 = 0.7999 | 1.4304 | 1.4264 | 1.4224 | 1.4184
x1 = 0.8499 | 1.4315 | 1.4275 | 1.4234 | 1.4194
x1 = 0.8997 | 1.4326 | 1.4285 | 1.4244 | 1.4204
x1 = 0.9496 | 1.4335 | 1.4294 | 1.4253 | 1.4213
x1 = 1 | 1.4344 | 1.4303 | 1.4262 | 1.4221
